Reference: patent US10526323B2, “Indazole and azaindazole substituted compounds as mGluR4 allosteric potentiators, compositions, and methods of treating neurological dysfunction” (Vanderbilt University, priority 2015, dated 2020)

target: mGluR4 (UniProt Q14833); assay: mGluR4 potentiation assay: increase in response to an EC20 concentration of agonist (species not given); format: cell-based; settings: EC50 for potentiation of mGluR4; table does not state human or rat
In short: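 Human mGluR4 was expressed in CHO cells read with a Ca2+-sensitive dye; rat mGluR4 was co-expressed with GIRK in […] read by thallium flux. Potentiation is the rise over agonist-alone response, with EC50 and maximal potentiation from non-linear fits.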

| Compound | EC50 [nM] |
| --- | --- |
| Cn1ncc2cc(Nc3n[nH]c4cccnc34)cnc21 [Example 151, N-(1-methyl-1H-pyrazolo[3,4-b]pyridin-5-yl)-1H-pyrazolo[4,3-b]pyridin-3-amine] | 582 |
| CC(C)n1ncc2cc(Nc3n[nH]c4cccnc34)cnc21 [Example 152, N-(1-isopropyl-1H-pyrazolo[3,4-b]pyridin-5-yl)-1H-pyrazolo[4,3-b]pyridin-3-amine] | 371 |
| CC(C)n1ncc2cc(Nc3n[nH]c4nccnc34)cnc21 [Example 153, N-(1-isopropyl-1H-pyrazolo[3,4-b]pyridin-5-yl)-1H-pyrazolo[3,4-b]pyrazin-3-amine] | 413 |
| Cc1nn(CCC(C)C)c2ncc(Nc3n[nH]c4cccnc34)cc12 [Example 154, 1-isopentyl-3-methyl-N-(1H-pyrazolo[4,3-b]pyridin-3-yl)pyrazolo[3,4-b]pyridin-5-amine] | 170 |
| CC[C@H](C)Cn1nc(C)c2cc(Nc3n[nH]c4cccnc34)cnc21 [Example 155, 3-methyl-1-[(2S)-2-methylbutyl]-N-(1H-pyrazolo[4,3-b]pyridin-3-yl)pyrazolo[3,4-b]pyridin-5-amine] | 160 |
| Cc1nn(CC2CCC2)c2ncc(Nc3n[nH]c4cccnc34)cc12 [Example 156, 1-(cyclobutylmethyl)-3-methyl-N-(1H-pyrazolo[4,3-b]pyridin-3-yl)pyrazolo[3,4-b]pyridin-5-amine] | 110 |
| Cc1nn(C2CCC2)c2ncc(Nc3n[nH]c4cccnc34)cc12 [Example 158, 1-cyclobutyl-3-methyl-N-(1H-pyrazolo[4,3-b]pyridin-3-yl)pyrazolo[3,4-b]pyridin-5-amine] | 200 |
| Cn1nc(C(=O)NCCS(C)(=O)=O)c2ccc(Nc3n[nH]c4cccnc34)cc21 [Example 159, 1-methyl-N-(2-methylsulfonylethyl)-6-(1H-pyrazolo[4,3-b]pyridin-3-ylamino)indazole-3-carboxamide] | 3940 |
| Cn1nc(C(=O)N2CCCC(F)(F)C2)c2ccc(Nc3n[nH]c4cccnc34)cc21 [Example 160, (3,3-difluoro-1-piperidyl)-[1-methyl-6-(1H-pyrazolo[4,3-b]pyridin-3-ylamino)indazol-3-yl]methanone] | 888 |
| Cn1nc(C(=O)N2CCC(C(N)=O)CC2)c2ccc(Nc3n[nH]c4cccnc34)cc21 [Example 161, 1-[1-methyl-6-(1H-pyrazolo[4,3-b]pyridin-3-ylamino)indazole-3-carbonyl]piperidine-4-carboxamide] | > 10000 |
| Cn1nc(C(=O)N2CCC(F)(F)CC2)c2ccc(Nc3n[nH]c4cccnc34)cc21 [Example 162, (4,4-difluoro-1-piperidyl)-[1-methyl-6-(1H-pyrazolo[4,3-b]pyridin-3-ylamino)indazol-3-yl]methanone] | 498 |
| Cn1nc(C(=O)N2CCCC(F)C2)c2ccc(Nc3n[nH]c4cccnc34)cc21 (stereo not shown) [Example 163, (3-fluoro-1-piperidyl)-[1-methyl-6-(1H-pyrazolo[4,3-b]pyridin-3-ylamino)indazol-3-yl]methanone] | 2210 |
| Cn1nc(C(=O)N2CCC(F)CC2)c2ccc(Nc3n[nH]c4cccnc34)cc21 [Example 164, (4-fluoro-1-piperidyl)-[1-methyl-6-(1H-pyrazolo[4,3-b]pyridin-3-ylamino)indazol-3-yl]methanone] | 1110 |
| Cn1nc(C(=O)N2CCS(=O)(=O)CC2)c2ccc(Nc3n[nH]c4cccnc34)cc21 [Example 165, (1,1-dioxo-1,4-thiazinan-4-yl)-[1-methyl-6-(1H-pyrazolo[4,3-b]pyridin-3-ylamino)indazol-3-yl]methanone] | 801 |
| CN1CCN(C(=O)c2nn(C)c3cc(Nc4n[nH]c5cccnc45)ccc23)CC1 [Example 166, (4-methylpiperazin-1-yl)-[1-methyl-6-(1H-pyrazolo[4,3-b]pyridin-3-ylamino)indazol-3-yl]methanone] | > 10000 |
| Cn1nc(C(=O)N2CCOCC2)c2ccc(Nc3n[nH]c4cccnc34)cc21 [Example 167, [1-methyl-6-(1H-pyrazolo[4,3-b]pyridin-3-ylamino)indazol-3-yl]-morpholino-methanone] | 1580 |
| Cn1nc(C(=O)N2CC[C@@H](F)C2)c2ccc(Nc3n[nH]c4cccnc34)cc21 [Example 168, [(3R)-3-fluoropyrrolidin-1-yl]-[1-methyl-6-(1H-pyrazolo[4,3-b]pyridin-3-ylamino)indazol-3-yl]methanone] | 903 |
| Cn1nc(C(=O)NCCCS(C)(=O)=O)c2ccc(Nc3n[nH]c4cccnc34)cc21 [Example 169, 1-methyl-N-(3-methylsulfonylpropyl)-6-(1H-pyrazolo[4,3-b]pyridin-3-ylamino)indazole-3-carboxamide] | 4610 |
| Cn1nc(C(=O)N2CCC(S(C)(=O)=O)C2)c2ccc(Nc3n[nH]c4cccnc34)cc21 (stereo not shown) [Example 170, [1-methyl-6-(1H-pyrazolo[4,3-b]pyridin-3-ylamino)indazol-3-yl]-(3-methylsulfonylpyrrolidin-1-yl)methanone] | 2340 |
| Cn1nc(C(=O)N2CC[C@H](F)C2)c2ccc(Nc3n[nH]c4cccnc34)cc21 [Example 171, [(3S)-3-fluoropyrrolidin-1-yl]-[1-methyl-6-(1H-pyrazolo[4,3-b]pyridin-3-ylamino)indazol-3-yl]methanone] | 765 |

| Compound | EC50 [nM] |
| --- | --- |
| Cn1nc(C(=O)N2CCC(F)(F)C2)c2ccc(Nc3n[nH]c4cccnc34)cc21 [Example 172, (3,3-difluoropyrrolidin-1-yl)-[1-methyl-6-(1H-pyrazolo[4,3-b]pyridin-3-ylamino)indazol-3-yl]methanone] | 289 |
| Cn1nc(C(=O)N2CCCC2)c2ccc(Nc3n[nH]c4cccnc34)cc21 [Example 173, [1-methyl-6-(1H-pyrazolo[4,3-b]pyridin-3-ylamino)indazol-3-yl]-pyrrolidin-1-yl-methanone] | 825 |
| Cn1nc(C(=O)NC2CC(F)(F)C2)c2ccc(Nc3n[nH]c4cccnc34)cc21 [Example 174] | 116 |
| Cn1nc(C(=O)NC2CC(F)C2)c2ccc(Nc3n[nH]c4cccnc34)cc21 (stereo not shown) [Example 175, N-(3-fluorocyclobutyl)-1-methyl-6-(1H-pyrazolo[4,3-b]pyridin-3-ylamino)indazole-3-carboxamide] | 794 |
| Cn1nc(C(=O)NC2CCC2)c2ccc(Nc3n[nH]c4cccnc34)cc21 [Example 176, N-cyclobutyl-1-methyl-6-(1H-pyrazolo[4,3-b]pyridin-3-ylamino)indazole-3-carboxamide] | 653 |
| Cn1nc(C#N)c2ccc(Nc3n[nH]c4cccnc34)cc21 [Example 177, 1-methyl-6-(1H-pyrazolo[4,3-b]pyridin-3-ylamino)indazole-3-carbonitrile] | 467 |
| Cc1cncc(-c2nn(C)c3cc(Nc4n[nH]c5cccnc45)ccc23)c1 [Example 178, N-(1-methyl-3-(5-methylpyridin-3-yl)-1H-indazol-6-yl)-1H-pyrazolo[4,3-b]pyridin-3-amine] | 4180 |
| Cn1nc(-c2ccc(=O)[nH]c2)c2ccc(Nc3n[nH]c4cccnc34)cc21 [Example 179, 5-[1-methyl-6-(1H-pyrazolo[4,3-b]pyridin-3-ylamino)indazol-3-yl]-1H-pyridin-2-one] | 2720 |
| COc1ccc(-c2nn(C)c3cc(Nc4n[nH]c5cccnc45)ccc23)cn1 [Example 180, N-[3-(6-methoxy-3-pyridyl)-1-methyl-indazol-6-yl]-1H-pyrazolo[4,3-b]pyridin-3-amine] | > 10000 |
| Cn1nc(OCC2CCCCO2)c2ccc(Nc3n[nH]c4cccnc34)cc21 (stereo not shown) [Example 181, N-(1-methyl-3-((tetrahydro-2H-pyran-2-yl)methoxy)-1H-indazol-6-yl)-1H-pyrazolo[4,3-b]pyridin-3-amine] | 87 |
| Cn1nc(OCC(F)(F)F)c2ccc(Nc3n[nH]c4cccnc34)cc21 [Example 182, N-(1-methyl-3-(2,2,2-trifluoroethoxy)-1H-indazol-6-yl)-1H-pyrazolo[4,3-b]pyridin-3-amine] | 198 |
| Cc1cc(COc2nn(C)c3cc(Nc4n[nH]c5cccnc45)ccc23)no1 [Example 183, N-(1-methyl-3-((5-methylisoxazol-3-yl)methoxy)-1H-indazol-6-yl)-1H-pyrazolo[4,3-b]pyridin-3-amine] | 224 |
| Cn1nc(OCc2cccnc2)c2ccc(Nc3n[nH]c4cccnc34)cc21 [Example 184, N-(1-methyl-3-(pyridin-3-ylmethoxy)-1H-indazol-6-yl)-1H-pyrazolo[4,3-b]pyridin-3-amine] | 83 |
| Cn1nc(OCC2CC2)c2ccc(Nc3n[nH]c4cccnc34)cc21 [Example 185, N-(3-(cyclopropylmethoxy)-1-methyl-1H-indazol-6-yl)-1H-pyrazolo[4,3-b]pyridin-3-amine] | 164 |
| Cn1nc(S(C)(=O)=O)c2ccc(Nc3n[nH]c4cccnc34)cc21 [Example 186, N-(1-methyl-3-(methylsulfonyl)-1H-indazol-6-yl)-1H-pyrazolo[4,3-b]pyridin-3-amine] | 1880 |
| Cn1nc(S(C)(=O)=O)c2ccc(Nc3n[nH]c4nccnc34)cc21 [Example 187, N-(1-methyl-3-(methylsulfonyl)-1H-indazol-6-yl)-1H-pyrazolo[3,4-b]pyrazin-3-amine] | 2360 |
| Cn1nc(OCC2CC2(F)F)c2ccc(Nc3n[nH]c4cccnc34)cc21 (stereo not shown) [Example 188, N-[3-[(2,2-difluorocyclopropyl)methoxy]-1-methyl-indazol-6-yl]-1H-pyrazolo[4,3-b]pyridin-3-amine] | 112 |
| Cn1nc(OC2CCS(=O)(=O)CC2)c2ccc(Nc3n[nH]c4cccnc34)cc21 [Example 192, N-[3-(1,1-dioxothian-4-yl)oxy-1-methyl-indazol-6-yl]-1H-pyrazolo[4,3-b]pyridin-3-amine] | 185 |
| Cn1nc(OCC2(C)COC2)c2ccc(Nc3n[nH]c4cccnc34)cc21 [Example 194, N-[1-methyl-3-[(3-methyloxetan-3-yl)methoxy]indazol-6-yl]-1H-pyrazolo[4,3-b]pyridin-3-amine] | 146 |
| Cn1nc(OCC2COC2)c2ccc(Nc3n[nH]c4cccnc34)cc21 [Example 195, N-[1-methyl-3-(oxetan-3-ylmethoxy)indazol-6-yl]-1H-pyrazolo[4,3-b]pyridin-3-amine] | 96.6 |
